In patent publication US10160755B2 (Plexxikon Inc., priority 2015, dated 2018):

Molecular target: T1, BA/F3-FLT3-ITD + F691L cells (Homo sapiens, UniProt P36888, F691L, cells depend on it, form not given)
T1 sequence (P36888 1-993 F691L): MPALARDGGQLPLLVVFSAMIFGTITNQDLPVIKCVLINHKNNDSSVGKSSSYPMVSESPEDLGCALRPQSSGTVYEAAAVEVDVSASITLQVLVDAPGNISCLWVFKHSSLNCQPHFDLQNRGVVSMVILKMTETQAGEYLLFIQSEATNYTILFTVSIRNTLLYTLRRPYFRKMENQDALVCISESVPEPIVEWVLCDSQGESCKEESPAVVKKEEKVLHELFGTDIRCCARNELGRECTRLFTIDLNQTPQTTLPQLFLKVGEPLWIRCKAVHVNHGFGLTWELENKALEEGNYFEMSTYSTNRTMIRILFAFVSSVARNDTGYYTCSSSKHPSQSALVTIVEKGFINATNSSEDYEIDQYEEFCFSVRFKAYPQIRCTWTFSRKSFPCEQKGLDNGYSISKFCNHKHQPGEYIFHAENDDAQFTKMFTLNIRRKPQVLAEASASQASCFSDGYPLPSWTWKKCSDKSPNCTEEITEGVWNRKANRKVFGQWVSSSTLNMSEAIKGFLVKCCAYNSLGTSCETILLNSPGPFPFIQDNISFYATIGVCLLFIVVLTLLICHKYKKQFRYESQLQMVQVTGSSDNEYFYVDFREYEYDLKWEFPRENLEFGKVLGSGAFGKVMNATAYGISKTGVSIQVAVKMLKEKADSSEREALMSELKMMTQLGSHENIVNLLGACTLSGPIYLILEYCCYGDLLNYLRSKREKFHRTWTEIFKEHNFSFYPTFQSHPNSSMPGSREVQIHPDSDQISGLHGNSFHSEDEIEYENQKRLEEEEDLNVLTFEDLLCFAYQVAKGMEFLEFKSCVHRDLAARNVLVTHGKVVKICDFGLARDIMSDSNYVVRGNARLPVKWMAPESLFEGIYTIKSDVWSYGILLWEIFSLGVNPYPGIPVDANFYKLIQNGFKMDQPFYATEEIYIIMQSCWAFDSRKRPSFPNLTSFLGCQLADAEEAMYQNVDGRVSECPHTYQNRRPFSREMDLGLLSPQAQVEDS
Assay: BA/F3-FLT3-ITD + F691L cell proliferation assay (CellTiter-Glo)
Assay type: cell-based, murine
Conditions: BaF3 FLT3 ITD/F691L cells; read-out: Cell Activity (IC50 μM) BaF3_FLT3_ITD/F691L
Summary of the method: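 Three-day growth assay, IC50 from CellTiter-Glo ATP luminescence vs concentration. Compounds at 10 to 0.0046 μM (1:3 steps, final DMSO 0.2%) on 1×10^4 cells/well. Cells are IL-3-independent BA/F3 lines engineered to express full-length FLT3-ITD with the D835Y or the F691L mutation.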

SMILES | GI50
CC(C)(CO)n1cnc2ccc(-c3c[nH]c4ncc(-c5cccc(NS(C)(=O)=O)c5)nc34)cc21 [P-115, N-[3-[7-[3-(2-hydroxy-1,1-dimethyl-ethyl)benzimidazol-5-yl]-5H-pyrrolo[2,3-b]pyrazin-2-yl]phenyl]methanesulfonamide] | 0.0001 to 1 µM
COc1cc(-c2cnc3[nH]cc(-c4ccc5ncn(C(C)C)c5c4)c3n2)ccn1 [P-113, 7-(3-isopropylbenzimidazol-5-yl)-2-(2-methoxy-4-pyridyl)-5H-pyrrolo[2,3-b]pyrazine] | 0.0001 to 1 µM
COc1cc(-c2cnc3[nH]nc(-c4ccc5ncn(C(C)(C)C)c5c4)c3c2)ccn1 [P-272, 3-(1-(tert-butyl)-1H-benzo[d]imidazol-6-yl)-5-(2-methoxypyridin-4-yl)-1H-pyrazolo[3,4-b]pyridine] | 0.0001 to 1 µM
N#Cc1cccc(C#Cc2cnc3[nH]cc(-c4ccc5ncn(C6CCCNC6)c5c4)c3c2)c1 (stereo not drawn) [P-243, 3-[2-[3-[3-(3-piperidyl)benzimidazol-5-yl]-1H-pyrrolo[2,3-b]pyridin-5-yl]ethynyl]benzonitrile] | 0.0001 to 1 µM
COc1cnc2[nH]cc(-c3ccc4ncn(Cc5ccc(F)cc5)c4c3)c2c1 [P-110, 1-[(4-fluorophenyl)methyl]-6-(5-methoxy-1H-pyrrolo[2,3-b]pyridin-3-yl)benzimidazole] | 0.0001 to 1 µM
CC(C)(C)n1cnc2ccc(-c3c[nH]c4ncc(-c5ccc(F)c(C#N)c5)nc34)cc21 [P-230, 5-[7-(3-tert-butylbenzimidazol-5-yl)-5H-pyrrolo[2,3-b]pyrazin-2-yl]-2-fluoro-benzonitrile] | 0.0001 to 1 µM
COc1cc(C#Cc2cnc3[nH]cc(-c4ccc5ncn(C6CCCNC6)c5c4)c3c2)ccn1 (stereo not drawn) [P-241, 5-[2-(2-methoxy-4-pyridyl)ethynyl]-3-[3-(3-piperidyl)benzimidazol-5-yl]-1H-pyrrolo[2,3-b]pyridine] | 0.0001 to 1 µM
COc1cc(-c2cnc3[nH]cc(-c4ccc5ncn(C6CCCN(C(C)=O)C6)c5c4)c3n2)ccn1 (stereo not drawn) [P-260, 1-[3-[6-[2-(2-methoxy-4-pyridyl)-5H-pyrrolo[2,3-b]pyrazin-7-yl]benzimidazol-1-yl]-1-piperidyl]ethanone] | 0.0001 to 1 µM
O=S1(=O)CCCCN1c1cccc(-c2cnc3[nH]cc(-c4ccc5ncn(C6CCCNC6)c5c4)c3c2)c1 (stereo not drawn) [P-224, 2-[3-[3-[3-(3-piperidyl)benzimidazol-5-yl]-1H-pyrrolo[2,3-b]pyridin-5-yl]phenyl]thiazinane 1,1-dioxide] | 0.0001 to 1 µM
COc1ncc(-c2cnc3[nH]cc(-c4ccc5ncn(C6CCCNC6)c5c4)c3n2)cn1 (stereo not drawn) [P-264, 2-(2-methoxypyrimidin-5-yl)-7-[3-(3-piperidyl)benzimidazol-5-yl]-5H-pyrrolo[2,3-b]pyrazine] | 0.0001 to 1 µM
CC(C)(C)n1cnc2ccc(-c3c[nH]c4ncc(-c5cnn(CC(F)(F)F)c5)nc34)cc21 [P-256, 7-(3-tert-butylbenzimidazol-5-yl)-2-[1-(2,2,2-trifluoroethyl)pyrazol-4-yl]-5H-pyrrolo[2,3-b]pyrazine] | 0.0001 to 1 µM
FC(F)(F)Oc1cccc(C#Cc2cnc3[nH]cc(-c4ccc5ncn(C6CCCNC6)c5c4)c3n2)c1 (stereo not drawn) [P-246, 7-[3-(3-piperidyl)benzimidazol-5-yl]-2-[2-[3-(trifluoromethoxy)phenyl]ethynyl]-5H-pyrrolo[2,3-b]pyrazine] | 1 to 10 µM
O=S(=O)(c1cccc(-c2cnc3[nH]cc(-c4ccc5ncn(C6CCCNC6)c5c4)c3c2)c1)N1CCCC1 (stereo not drawn) [P-222, 1-(3-piperidyl)-6-[5-(3-pyrrolidin-1-ylsulfonylphenyl)-1H-pyrrolo[2,3-b]pyridin-3-yl]benzimidazole] | 0.0001 to 1 µM
C#Cc1cnc2[nH]cc(-c3ccc4ncn(C(C)(C)C)c4c3)c2c1 [P-244, 1-tert-butyl-6-(5-ethynyl-1H-pyrrolo[2,3-b]pyridin-3-yl)benzimidazole] | 0.0001 to 1 µM
FC(F)(F)Cn1cc(-c2cnc3[nH]cc(-c4ccc5ncn(C6CCCNC6)c5c4)c3n2)cn1 (stereo not drawn) [P-258, 7-[3-(3-piperidyl)benzimidazol-5-yl]-2-[1-(2,2,2-trifluoroethyl)pyrazol-4-yl]-5H-pyrrolo[2,3-b]pyrazine] | 0.0001 to 1 µM
COc1cnc2[nH]cc(-c3ccc4ncn(-c5ccc(Cl)cc5)c4c3)c2c1 [P-104, 1-(4-chlorophenyl)-6-(5-methoxy-1H-pyrrolo[2,3-b]pyridin-3-yl)benzimidazole] | 0.0001 to 1 µM
COc1cc(C(=O)Nc2cnc3[nH]cc(-c4ccc5ncn(C(C)(C)C)c5c4)c3c2)ccn1 [P-245, N-[3-(3-tert-butylbenzimidazol-5-yl)-1H-pyrrolo[2,3-b]pyridin-5-yl]-2-methoxy-pyridine-4-carboxamide] | 0.0001 to 1 µM
CCCS(=O)(=O)Nc1cccc(-c2cnc3[nH]cc(-c4ccc5ncn(C6CCCNC6)c5c4)c3c2)c1 (stereo not drawn) [P-217, N-[3-[3-[3-(3-piperidyl)benzimidazol-5-yl]-1H-pyrrolo[2,3-b]pyridin-5-yl]phenyl]propane-1-sulfonamide] | 0.0001 to 1 µM
CC(C)S(=O)(=O)Nc1cccc(-c2cnc3[nH]cc(-c4ccc5ncn(C(C)(C)C)c5c4)c3n2)c1 [P-232, N-[3-[7-(3-tert-butylbenzimidazol-5-yl)-5H-pyrrolo[2,3-b]pyrazin-2-yl]phenyl]propane-2-sulfonamide] | 0.0001 to 1 µM
COc1cc(C#Cc2cnc3[nH]cc(-c4ccc5ncn(C(C)(C)C)c5c4)c3c2)ccn1 [P-240, 1-(tert-butyl)-6-(5-((2-methoxypyridin-4-yl)ethynyl)-1H-pyrrolo[2,3-b]pyridin-3-yl)-1H-benzo[d]imidazole] | 0.0001 to 1 µM
O=S(=O)(c1cccc(-c2cnc3[nH]cc(-c4ccc5ncn(C6CCCNC6)c5c4)c3n2)c1)N1CCCC1 (stereo not drawn) [P-237, 7-[3-(3-piperidyl)benzimidazol-5-yl]-2-(3-pyrrolidin-1-ylsulfonylphenyl)-5H-pyrrolo[2,3-b]pyrazine] | 0.0001 to 1 µM
O=S1(=O)CCCN1c1cccc(-c2cnc3[nH]cc(-c4ccc5ncn(C6CCCNC6)c5c4)c3n2)c1 (stereo not drawn) [P-273, 2-[3-[7-[3-(3-piperidyl)benzimidazol-5-yl]-5H-pyrrolo[2,3-b]pyrazin-2-yl]phenyl]-1,2-thiazolidine 1,1-dioxide] | 0.0001 to 1 µM
CC(C)(C)n1cnc2ccc(-c3c[nH]c4ncc(-c5cccc(N6CCCCS6(=O)=O)c5)nc34)cc21 [P-227, 2-[3-[7-(3-tert-butylbenzimidazol-5-yl)-5H-pyrrolo[2,3-b]pyrazin-2-yl]phenyl]thiazinane 1,1-dioxide] | 0.0001 to 1 µM
COc1cc(-c2cnc3[nH]cc(-c4ccc5ncn(C(C)(C)C)c5c4)c3c2)ccn1 [P-106, 1-tert-butyl-6-[5-(2-methoxy-4-pyridyl)-1H-pyrrolo[2,3-b]pyridin-3-yl]benzimidazole] | 0.0001 to 1 µM
CC(C)(C)n1cnc2ccc(-c3c[nH]c4ncc(-c5cnc(N6CCOCC6)nc5)cc34)cc21 [P-266, 4-[5-[3-(3-tert-butylbenzimidazol-5-yl)-1H-pyrrolo[2,3-b]pyridin-5-yl]pyrimidin-2-yl]morpholine] | 0.0001 to 1 µM
COc1cc(C(=O)Nc2cnc3[nH]cc(-c4ccc5ncn(C6CCCNC6)c5c4)c3c2)ccn1 (stereo not drawn) [P-247, 2-methoxy-N-[3-[3-(3-piperidyl)benzimidazol-5-yl]-1H-pyrrolo[2,3-b]pyridin-5-yl]pyridine-4-carboxamide] | 0.0001 to 1 µM
CC(C)(C)n1cnc2ccc(-c3c[nH]c4ncc(-c5cccc(S(=O)(=O)N6CCCC6)c5)cc34)cc21 [P-220, 1-tert-butyl-6-[5-(3-pyrrolidin-1-ylsulfonylphenyl)-1H-pyrrolo[2,3-b]pyridin-3-yl]benzimidazole] | 0.0001 to 1 µM
CC(C)n1cnc2ccc(-c3c[nH]c4ncc(-c5cnn(C(F)F)c5)cc34)cc21 [P-267, 5-[1-(difluoromethyl)pyrazol-4-yl]-3-(3-isopropylbenzimidazol-5-yl)-1H-pyrrolo[2,3-b]pyridine] | 0.0001 to 1 µM
COc1ncc(-c2cnc3[nH]cc(-c4ccc5ncn(C(C)(C)C)c5c4)c3c2)cn1 [P-265, 1-(tert-butyl)-6-(5-(2-methoxypyrimidin-5-yl)-1H-pyrrolo[2,3-b]pyridin-3-yl)-1H-benzo[d]imidazole] | 0.0001 to 1 µM
N#Cc1cccc(-c2cnc3[nH]cc(-c4ccc5ncn(-c6ccc(F)c(Cl)c6)c5c4)c3c2)c1 [P-210, 3-[3-[3-(3-chloro-4-fluoro-phenyl)benzimidazol-5-yl]-1H-pyrrolo[2,3-b]pyridin-5-yl]benzonitrile] | 0.0001 to 1 µM
